# ChEMBL document CHEMBL1137911, “Synthesis and evaluation of 4-triazolylflavans as new aromatase inhibitors” (Bioorg Med Chem Lett, 2004)
# Legend:
# [1] = biological target: T1, Aromatase (Homo sapiens, UniProt P11511); experiment: Relative potency for inhibition of aromatase binding compared to aminoglutethimide
# T1 sequence (P11511 whole entry): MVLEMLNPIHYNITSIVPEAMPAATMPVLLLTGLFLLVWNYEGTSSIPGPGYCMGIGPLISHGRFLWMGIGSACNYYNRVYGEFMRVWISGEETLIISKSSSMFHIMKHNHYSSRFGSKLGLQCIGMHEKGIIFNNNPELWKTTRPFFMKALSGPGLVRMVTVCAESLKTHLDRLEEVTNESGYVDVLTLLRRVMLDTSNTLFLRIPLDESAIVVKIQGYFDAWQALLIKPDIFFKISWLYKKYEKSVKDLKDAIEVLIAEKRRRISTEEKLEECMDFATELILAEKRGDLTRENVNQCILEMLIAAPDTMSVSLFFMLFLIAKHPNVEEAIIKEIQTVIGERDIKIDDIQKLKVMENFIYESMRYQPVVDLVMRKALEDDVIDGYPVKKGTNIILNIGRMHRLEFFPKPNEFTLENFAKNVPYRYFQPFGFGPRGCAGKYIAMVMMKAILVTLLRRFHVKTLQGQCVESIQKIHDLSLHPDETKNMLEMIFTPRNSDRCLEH
# [2] = biological target: T1, Aromatase; experiment: In vitro inhibition of [1,2,6,7-3H]androstenedione binding to Aromatase of human placental microsomes
Relative Potency [1],IC50 [2] [nM],Structure (SMILES)
0.16,31600,COc1ccc2c(c1)OC(c1ccccc1)CC2n1cnnc1 (stereo not drawn)
12.1,430,Oc1ccc2c(c1)OC(c1ccccc1)CC2n1cncn1 (stereo not drawn)
3.7,1400,COc1ccc2c(c1)OC(c1ccccc1)CC2n1cncn1 (stereo not drawn)
126.8,40,Oc1ccc2c(c1)OC(c1ccccc1)CC2n1ccnc1 (stereo not drawn)
